In patent US9511086B2, “Method for improving immune system function by administering agents that inhibit DNA-dependent protein kinase-directed apoptosis” (The Board of Trustees of the Leland Stanford Junior …, priority 2010, dated 2016):

System: Bim
Assay: Bim protein level by flow cytometry in RA T cells
Format: cell-based, human
Details: treated vs untreated
Method: FIG. 8. The DNA-PKcs-JNK pathway upregulates the apoptogenic molecules Bim and Bmf in RA CD4+ T cells. CD4+CD45RO− T cells were isolated from the peripheral blood of 6 controls and 6 RA patients. Cells were maintained in culture without mitogenic stimulation for 72 h. (A) Puma, Noxa, Bim and Bmf transcript levels in freshly isolated cells were quantified by qPCR. Data are presented as mean±SEM. (B) Flow cytometry analysis of Bim levels in control and RA naïve T cells after 72 h of culture. Expression of Bim protein in n=5 RA and n=5 controls samples is given as MFI of Alexa Fluor 488 Bim. (C) Flow cytometry analysis of Bmf levels in control and RA naïve T cells. Expression of Bmf protein in n=6 RA and n=4 controls samples is given as MFI of PE Bmf. (D) Bcl-2 protein levels were analyzed by flow cytometry. Expression of Bcl-2 protein in n=6 RA and n=6 control samples is given as MFI of FITC Bcl-2. (E) Bim protein level in the absence and presence of the DNA-PKcs inhibitor were analyzed by flow cytometry in samples from 4 RA patients. […]
For intracellular staining, cells were fixed directly with 1.5% formaldehyde for 10 min at room temperature and resuspended in 90% methanol. […] Proteins or 8-oxoguanine expression were detected by an LSRII flow cytometer (BD Biosciences). Data were analyzed by FlowJo software (Tree Star Inc., Ashland, Oreg.). […]

Compound: CC(=O)c1ccc(N2CCOCC2)cc1O [IC86621, 1-(2-hydroxy-4-morpholin-4-ylphenyl)ethanone]
- intracellular Bim levels: reduced
